Measured values from patent US20030100477A1, “Medicinal compositions for suppressing beta-amyloid production” (priority 2002, published 2003).

Legend:
Cdk5 and p25 = biological target: T1, Cdk5 and p25 (Homo sapiens, UniProt Q00535); test: Cdk5 kinase inhibitory activity, SPA method with biotinylated histone and 33P-ATP; format: biochemical; conditions: recombinant human Cdk5/p25 1:1, SPA method
T1 construct: Complete length of the human Cdk5 gene was amplified from total RNA; made in house; host or cells: Sf9 insect cells (baculovirus)
Protocol: The total RNA was obtained by adding 1 ml of ISOGEN reagent (Nippon Gene) to 1×10^6 cells, mixing the resulting lysate with ⅕ volume of chloroform, centrifuging the mixture at 15,000 rpm for 10 minutes, mixing the resulting supernatant with ½ volume of 2-propanol and further centrifuging the mixture at 15,000 rpm for 20 minutes. The thus obtained RNA was dissolved in water and, after measurement of its concentration, subjected to PCR reaction (Titans one tube RT-PCR kit (Boehringer Mannheim)). […] Each of the genes was introduced into a Bacmid preparation vector pFASTBac-Hta (Gibco BRL) which had been designed such that His-tag is added to N-terminus, making use of the HindIII and BamHI sites designed in the primers. Each of the genes introduced into pFASTBac was introduced into DH10Bac to carry out recombination in E. coli, thereby obtaining respective recombinant Bacmids. The thus obtained Bacmid was introduced into Sf9 cells using cellfectin reagent (Gibco BRL) to obtain baculovirus. […] Purification of the recombinant proteins was carried out making use of the 6× His tag added to the N-terminus.
After though washing with the buffer A, this was washed with a buffer B (20 mM Tris-HCl, 1 M KCl, 10 mM 2-ME, 10% glycerol). Finally, fractions eluted with a buffer C (20 mM Tris-HCl, 100 mM KCl, 100 mM imidazole, 10 mM 2-ME, 10% glycerol) were recovered, dialyzed against a sample solution (50 mM HEPES-KOH, 10 mM MgCl2, 2.5 mM EGTA, 0.1 mM PMSF) and used as a purified preparation.
A 1:1 mixture of the purified Cdk5 protein and purified p25 obtained above was used as the enzyme source at the time of kinase activity measurement. Histone HI (Sigma) was biotinylated and used as the substrate. Biotinylated histone was prepared by allowing histone to react with 10 equivalents of biotin (Ez-link Sulfo-NHS-LC-Biotin, Pierce) as molar ratio in the presence of 50 mM sodium bicarbonate at room temperature for 6 hours. Free biotin was removed by carrying out dialysis using TBS, and the resulting solution was used as the stock solution. Measurement of kinase activity was carried out in accordance with the SPA method (Amersham). […] This was allowed to stand at room temperature for 15 minutes and centrifuged (1,700 rpm, 2 min), and then amount of the isotope incorporated in the substrate was measured by Topcount […].

Aβ1-40 production = test: Aβ1-40 production, sandwich ELISA of culture supernatant of APP695 adenovirus-infected hippocampus primary culture nerve cells
Protocol: The fetus was sterilized with ethanol for disinfection in a clean bench, the total brain was extracted and recovered in a dish containing a serum-free medium (SUMILON, Sumitomo Bakelite), and the hippocampus was extracted using a precision pincette under a stereoscopic microscope. The hippocampus was transferred into a 50 ml tube, tissues were precipitated by standing to discard the supernatant by aspirating and a cell dispersing solution (PBS containing 1% papain, 150 U/ml DNase I, 0.02% L-cysteine, 0.02% BSA and 0.5% glucose) was added thereto, and the mixture was incubated at 37° C. for 15 minutes and then centrifuged (1,000 rpm, 4° C., 5 min). The supernatant was removed by aspiration, 10 ml of the serum-free medium was added to the sediment, pipette treatment was carried out several times, and then cell masses were removed using a filter to obtain a cell suspension. The number of cells was counted using trypan blue, and 1.5×10^5 of the cells were inoculated into a poly-L-lysine-coated 48 well culture plate. In order to effect sufficient differentiation, they were cultured at 37° C. for 10 days in a CO2 incubator and then used in the test.
Infection with adenovirus was carried out on the 10th day of the culturing. A virus suspension of 1.5×10^8 particles was suitably diluted and added to a medium to an MOI (multiplicity of infection) value of 1,000 based on 1.5×10^5 cells. A sample was recovered on the 4th day of the infection.
Culture supernatants recovered 24 hours after the addition of compounds to be tested were used as the samples for Aβ production measurement. Amount of Aβ in each supernatant was determined by sandwich ELISA. Firstly, an anti-Aβ monoclonal antibody 6E10 (Wako) diluted to 10 μg/ml with 100 mM phosphate buffer was dispensed in 50 μl/well portions into a plate for ELISA (Maxisorp, Nunc) and allowed to stand overnight at 4° C. to effect adhesion of the 6E10 antibody to the plate. The antibody was recovered on the next day, and 200 μl of Block Ace was added to each well to carry out blocking at 4° C. overnight or more. […] The Aβ for calibration curve preparation was prepared in the following manner. […] A 10 μl portion of the stock solution was transferred into a tube, HFIP was evaporated using a vacuum concentrator and then the residue was again dissolved in 10 μl of DMSO to an Aβ concentration of 1 mg/ml. Serial dilutions of the solution for Aβ calibration curve measurement were prepared within the range of from 0.2 to 10 ng/ml. The plate after the reaction with a sample or Aβ for calibration curve preparation was washed 4 times with the plate washer and then allowed to react with primary antibodies. Polyclonal antibodies R163 (Aβ1-40 specific antibody) and R165 Aβ1-42 specific antibody), which specifically recognize C-terminus of Aβ, were used as the primary antibodies. […] Each antibody was diluted 1,000 times with TBS-T containing 25% Block Ace, dispensed in 60 μl/well portions into the plate and then allowed to undergo the reaction at room temperature for 2 hours. After the reaction, the plate was washed 4 times using the plate washer and then the reaction with a secondary antibody was carried out. An HRP-labeled anti-rabbit IgG antibody was used as the secondary antibody, diluted 8,000 times with TBS-T containing 25% Block Ace and dispensed in 60 μl/well portions, and then the reaction was carried out at room temperature for 2 hours. After completion of the reaction, the plate was washed 4 times using the plate washer and then chemiluminescence by a POD chemiluminescence reagent (Boehringer Mannheim) was measured by ML3000 Plate Reader (Dynatech Laboratories).

[1] = test system: APP(Thr668) phosphorylation; test: APP(Thr668) phosphorylation by western blotting in APP695 adenovirus-infected hippocampus primary culture nerve cells; format: cell-based, rat; conditions: for APP phosphorylation suppressing action / concentration at which APP phosphorylation suppressing action was found: rat hippocampus primary culture nerve cells, human APP695 adenovirus, 1 day of treatment; for expressed amount of total APP detected with anti-APP antibody 22C11: same cells and treatment, Alsterpaullone 10 μM, Roscovitine 50 μM
Protocol: The APP gene-containing recombinant adenovirus vector was converted into linear strand by PacI treatment and introduced into HEK293 cells by the Lipofectamine method (LIFE TECHNOLOGIES), and 3 to 5 days thereafter when cells were pealed off from the plate, all of the cells were recovered. The recombinant adenovirus was obtained from the supernatant by repeating freezing-thawing step of the cells. The thus obtained recombinant adenovirus was prepared in a large amount by repeating infection of HEK293 cells and then concentrated and purified by the CsCl method and used in the test.
The thus obtained PVDF membrane was soaked in Block Ace (Daiichi Pure Chemicals) at 4° C. overnight to carry out blocking. […] The anti-serum obtained by the immunization was used by subjecting to adsorption treatment using an immunogen peptide before introduction of phosphate group and then purifying by affinity chromatography using the phosphate group-introduced antigen peptide. Also, an anti-APP monoclonal antibody 22C11 (Roche Molecular Biochemicals) was used in the determination of total APP amount (combined APP amount of phosphorylated state of APP and non-phosphorylated state of APP). […] After completion of the reaction, washing with PBS-T at room temperature for 10 minutes was repeated four times and then this was subjected to the reaction with a secondary antibody. As the secondary antibody, 20,000 times diluted HRP-labeled anti-rabbit and anti-mouse IgG antibodies (Amersham Pharmacia Biotech) were used.

Aβ1-42 production = test: Aβ1-42 production, sandwich ELISA of culture supernatant of APP695 adenovirus-infected hippocampus primary culture nerve cells; format: cell-based, rat; conditions: culture supernatant after 1 day of treatment, control DMSO (FIG. 4)
[2] = culture supernatant after 1 day of treatment, control DMSO (FIG. 3, FIG. 5)

T1 sequence (Q00535 2-292): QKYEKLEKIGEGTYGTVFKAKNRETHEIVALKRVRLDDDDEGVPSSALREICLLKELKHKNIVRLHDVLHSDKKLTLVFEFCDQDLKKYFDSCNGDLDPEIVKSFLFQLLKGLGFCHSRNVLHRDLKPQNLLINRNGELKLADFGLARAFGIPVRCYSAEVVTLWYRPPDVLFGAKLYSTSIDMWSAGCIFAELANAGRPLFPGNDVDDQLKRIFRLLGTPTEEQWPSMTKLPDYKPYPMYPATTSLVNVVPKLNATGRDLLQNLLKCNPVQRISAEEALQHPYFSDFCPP
T1 sequence (Q15078 99-307 partner limits assumed): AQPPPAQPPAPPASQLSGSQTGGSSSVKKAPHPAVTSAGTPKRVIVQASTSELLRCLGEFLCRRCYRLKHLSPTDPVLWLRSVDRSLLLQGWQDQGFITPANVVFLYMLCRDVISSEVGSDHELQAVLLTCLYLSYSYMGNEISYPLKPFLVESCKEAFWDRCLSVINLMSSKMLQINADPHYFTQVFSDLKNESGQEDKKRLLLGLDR

For `N[C@H]1CC[C@H](Nc2nc(Nc3cccc(Cl)c3)c3ncn(C4CCCC4)c3n2)CC1` [D], the Cdk5 inhibitory activity (Cdk5 and p25) was “verified the Cdk5 inhibitory activity”, the Aβ1-40 production (Aβ1-40 production; [2]) was “confirmed” and the “APP phosphorylation suppressing action” value [1] was “found”.

In the case of `CCn1cnc2c(Nc3cccc(OC)c3)nc(N[C@H]3CC[C@H](O)CC3)nc21` [C], the Cdk5 inhibitory activity (Cdk5 and p25) is reported as “verified the Cdk5 inhibitory activity”, the Aβ1-40 production (Aβ1-40 production; [2]) is reported as “confirmed” and the “APP phosphorylation suppressing action” value [1] is reported as “found”.

For `CC[C@H](CO)Nc1nc(NCc2ccccc2)c2ncn(C(C)C)c2n1` [Roscovitine, reference compound], the Aβ1-40 production (Aβ1-40 production; [2]) was “confirmed”, the “concentration at which APP phosphorylation suppressing action was found” value [1] was 50 µM and the “expressed amount of total APP detected with anti-APP antibody 22C11” value [1] was “no changes”.

For “Cdk5 D144N: dominant negative mutant of Cdk5 (144th aspartic acid converted into asparagine), expressed from adenovirus vector”, the Aβ1-40 production (Aβ1-40 production; cells on 7th day co-infected with APP695 adenovirus and Cdk5 D144N adenovirus, supernatant 2 days later, control GFP adenovirus) was “suppressed”.

For `CCn1cnc2c(Nc3cccc(OC)c3)nc(NC3CCC(N)CC3)nc21` (stereo not drawn) [B], the Cdk5 inhibitory activity (Cdk5 and p25) was “verified the Cdk5 inhibitory activity”, the Aβ1-40 production (Aβ1-40 production; [2]) was “confirmed” and the “APP phosphorylation suppressing action” value [1] was “found”.

With `CCn1cnc2c(Nc3cccc(OC)c3)nc(N[C@@H]3CCCC[C@@H]3N)nc21` [A] the Cdk5 inhibitory activity (Cdk5 and p25) was “verified the Cdk5 inhibitory activity”, the Aβ1-40 production (Aβ1-40 production; [2]) was “confirmed” and the “APP phosphorylation suppressing action” value [1] was “found”.

With `O=C1Cc2c([nH]c3ccc([N+](=O)[O-])cc23)-c2ccccc2N1` [Alsterpaullone, reference compound] the Cdk5 inhibitory activity (Cdk5 and p25) was “verified the Cdk5 inhibitory activity”, the Aβ1-40 production (Aβ1-40 production; [2]) was “suppressed” and the Aβ1-42 production (Aβ1-42 production) was “suppressed”. The “concentration at which APP phosphorylation suppressing action was found” value [1] was 10 µM and the “expressed amount of total APP detected with anti-APP antibody 22C11” value [1] was “no changes”.
